What was measured:
MAO-A [1] = target: T1, MAO-A (Homo sapiens, UniProt P21397); test: HRP/Amplex red based MAO-A enzyme activity assay; format: biochemical; settings: read-out: IC50, MAO-A assay, HRP/AR method
T1 sequence (P21397 1-527): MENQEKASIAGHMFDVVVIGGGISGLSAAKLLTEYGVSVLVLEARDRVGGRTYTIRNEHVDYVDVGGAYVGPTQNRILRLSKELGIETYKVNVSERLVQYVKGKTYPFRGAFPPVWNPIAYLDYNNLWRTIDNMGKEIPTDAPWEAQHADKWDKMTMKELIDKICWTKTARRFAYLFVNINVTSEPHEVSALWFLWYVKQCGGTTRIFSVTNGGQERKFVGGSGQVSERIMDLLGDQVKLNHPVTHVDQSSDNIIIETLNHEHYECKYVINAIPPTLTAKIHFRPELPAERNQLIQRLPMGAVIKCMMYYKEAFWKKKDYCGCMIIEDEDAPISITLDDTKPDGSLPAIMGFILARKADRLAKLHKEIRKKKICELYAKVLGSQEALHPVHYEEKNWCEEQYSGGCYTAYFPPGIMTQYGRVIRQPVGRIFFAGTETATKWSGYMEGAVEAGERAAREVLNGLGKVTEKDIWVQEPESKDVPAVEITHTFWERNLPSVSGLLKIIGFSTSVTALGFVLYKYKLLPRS
Experimental: MAO-A or MAO-B enzyme solutions were prepared by diluting 10 µL of a 2.5 mg/mL MAO-A or MAO-B stock into 10 mL of 50 mM sodium phosphate buffer (pH 7.4). A substrate assay mixture was then prepared by combining benzylamine (for MAO-B) or tyramine (for MAO-A) from a 100 mM stock (200 µL in 10 mL phosphate buffer, final concentration 1 mM) with 100 µL of a 20 mM AR reagent stock (final concentration 0.1 mM) and 100 µL of a 200 U/mL HRP stock (final concentration 1 U/mL) in 10 mL phosphate buffer. […] Next, 50 µL of the substrate assay mixture was added, and the reaction was carried out at 37 °C for 60 min. The production of resorufin was quantified by fluorescence measurement (excitation at 540 nm and emission at 580 nm).

MAO-A [2] = target: T1, MAO-A; test: ROS Glo based MAO-A enzyme activity assay; format: biochemical; settings: printed as 'separate MAO-B assay' within the MAO-A panel (b); read-out: IC50, ROS-Glo method, panel (b)
Experimental: An enzyme solution was prepared by diluting 10 µL of a 2.5 mg/mL MAO-A or MAO-B stock in 10 mL of 50 mM sodium phosphate buffer (pH 7.4). A substrate solution was prepared by diluting 200 µL of a 100 mM benzylamine (or tyramine) stock in 10 mL phosphate buffer to achieve a final concentration of 1 mM. For each 96-well plate experiment, 12.5 µL of a 1× H2O2 probe solution was added to 1 mL of the probe dilution buffer from the ROS Glo™ kit. Separately, 40 µL of cysteine and enhancer were diluted into 4 mL of Luciferin solution. In each well, 49 µL of the enzyme solution was dispensed, followed by 1 µL of the test compound, and incubated for 30 min. Then, 49 µL of the substrate solution was added, and the reaction proceeded at 37 °C for 60 min. Next, 10 µL of the H2O2 probe solution was added and incubated for 15 min. Subsequently, 40 µL of a luciferin solution containing cysteine and an enhancer was added, followed by an additional 30-minute incubation at 37 °C. Luminescence was subsequently recorded using a microplate luminescence reader (SpectraMax i3, Molecular Devices).

[3] = system: AAV-A53T injected C57BL/6J mice; test: AAV-α-syn A53T-injected mouse model; format: in vivo
Experimental: Male C57BL/6J mice (7 week-age-old) were used for inducing the α-syn A53T model and treating Vuti and vehicle. All mice were maintained in a specific pathogen-free animal facility under a 12:12-h light-dark cycle (lights on at 8:00 AM) at a temperature of 21℃ and allowed ad libitum access to food and water. All experiments and animal care were performed in accordance with the guidelines of the Institutional Animal Care and Use Committee (IACUC) of IBS, Daejeon, South Korea (IBS-IBC-2022-12). Mice were anesthetized under isoflurane anesthesia (induction: 3%–4%, maintenance: 1.5%–2%) and placed into stereotaxic (RWD, China). For establishing the α-syn A53T mouse model, 2µL of AAV-CMV-A53T-Asyn or AAV-CMV-EGFP (5 × 10^12 genomic copies/mL, packaged by the IBS virus facility) was injected into the SNpc (AP − 3.2 mm, ML ± 1.3 mm, DV − 4.0 mm relative to the bregma; 0.2µL/min) bilaterally. Oral administration of 50 mg/kg Vuti (Vuti 50) or the vehicle (Veh) was started 5 weeks after the virus injection, once a day for 12 weeks. Mice were used for behavior tests and immunostaining after completing drug treatment. Vertical grid test was performed as described before. For 5 days, mice were allowed for habituation in the test room. Prior to the trial session, the mice were acclimated to the vertical grid for 2 days. For the experiment, individual mice were gently placed 3 cm from the top, facing upward, and allowed to turn around and climb down. […] Starting from the fourth week after the injection, trials are conducted at two-week intervals.
Mice were deeply anaesthetized with isoflurane and perfused transcranial with 0.9% saline ice-cold 4% paraformaldehyde (PFA). Excised brains were postfixed at 4 °C overnight and transferred to 30% sucrose for 48 h for dehydration. Coronal sections of 30 μm thickness (20 μm thickness for super-resolution imaging) were prepared in a cryostat and stored in a storage solution at 4 °C. Brain tissues were washed in PBS and incubated in a blocking solution (0.3% Triton X-100, 2% Donkey Serum, 2% Goat Serum in 0.1 M PBS). Primary antibodies were added to the blocking solution at desired dilution and the sections were incubated in a shaker at 4 °C overnight. Primary antibodies used for immunostaining were anti-TH (rabbit, 1:200, Pel-freez, P40101-150), GFAP (chicken, 1:500, Millipore, AB5541), Iba-1 (rabbit, 1:500, Wako, 019-19741), DDC (rabbit, 1:200, abCam, ab3905), GABA (guinea pig, 1:200, Millipore, AB175), anti-PON2 (rabbit, 1:200, abCam, ab183710). Unbound antibodies were washed off using PBS, followed by corresponding secondary antibody incubation (in blocking solution) for 1–2 h at room temperature. Unbound antibodies were washed with PBS and DAPI was added to PBS (1:1500 dilution). Sections were mounted with fluorescent mounting medium (Dako) and dried. A series of fluorescent images were obtained using Zeiss LSM900 confocal microscope. Super-resolution image for PON2 signals imaged by Zeiss Lattice SIM (Structure-illumination microscope) and all images were processed using ImageJ (Fiji) software.

Compound: CCOc1ccc(C2COc3c(ccc4c3CCC(C)(C)O4)C2)c(O)c1 (stereo not shown) [Vuti, Vutiglabridin]
- IC50 (MAO-A [1]): 288 µM
- IC50 (MAO-A [2]): 24.7 µM
- GFAP and Iba1 levels (astrocytes and microglia) ([3]; A53T mice, Vuti 50 mg/kg): normalization
- amount of GABA in astrocytes ([3]; A53T mice, Vuti 50 mg/kg): decrease
- intracellular α-syn levels ([3]; A53T mice, Vuti 50 mg/kg): decreased
- step failure in the vertical grid test ([3]; A53T mice, Vuti 50 mg/kg oral from week 5, within 5 to 7 weeks of administration (weeks 10-12)): statistically significant improvements
- DDC-positive cells in SNpc ([3]; A53T mice, Vuti 50 mg/kg, 12 weeks after AAV-A53T injection): significantly increased
- TH-positive cells in SNpc ([3]; A53T mice, Vuti 50 mg/kg, 12 weeks after AAV-A53T injection, vs vehicle): significant increase
- PON2 protein level ([3]; A53T mouse model and WT + Vuti group, IHC and Western blot): remained unchanged
- TH+/DDC+ ratio ([3]; α-syn A53T overexpressed PD model): doubled
